In ChEMBL document CHEMBL5727835, “Alkynyl dihydroquinoline sulfonamide compounds” (2020):

Experiments:
[1] = Nav 1.7 In Vitro PX Assay: HEK 293 cells stably transfected with human Nav1.7 were recorded in whole cell voltage clamp mode with the PatchXpress automated electrophysiology system (Molecular Devices, LLC, Sunnyvale, Calif.). Compound effects were measured on a partially inactivated state of the sodium channel. Cells were clamped to a holding potential yielding 20 to 50% inactivation. To elicit sodium current, channels were activated by pulsing to −10 mV for 20 msec. This voltage protocol was repeated at a rate of 0.1 Hz throughout the experiment. A single concentration of test compound was applied to cells for a duration of 3 minutes. Peak sodium current was measured at the end of the compound addition period to determine percent inhibition. Three to five cells were tested per concentration, and IC50 curves were fitted to percent inhibition as a function of concentration.; conditions: HEK293
[2] = Nav 1.7 or Nav 1.5 IWQ In Vitro Assay: HEK 293 Cells stably transfected with either Nav 1.7 or Nav 1.5 were recorded in population patch-clamp mode with the IonWorks® Quattro automated electrophysiology system in accordance with the manufacturer's specifications (Molecular Devices, LLC, Sunnyvale, Calif.). Sodium channel currents were measured in response to a train of depolarizations that induced successively greater inactivation.Cells were held at −110 mV for three seconds (Nav 1.7) or half a second (Nav 1.5) from a holding voltage of −15 mV, then put through a series of 26 pulses of 150 msec duration to −20 mV at a frequency of 5 Hz. Cells were then left unclamped for a period of 3 to 8 minutes while a single concentration of test compound was added. Cells were then reclamped and put through the same voltage protocol. Current at the end of the 26th pulse to −20 mV was subtracted from the peak current evoked by the 26th pulse to −20 mV to correct for leak current. Percent block was calculated for each concentration in duplicate, and IC50 curves were fitted to percent block as a function of concentration.; conditions: HEK293

SMILES | IC50 [1] | IC50 [2]
COc1cc(C#CC2CCCC2)c(F)cc1-n1c(=O)ccc2cc(S(=O)(=O)Nc3ccon3)ccc21 | 17.3 nM | 4.53 nM
COc1cc(C#CC2(OCC(F)(F)F)CCCC2)c(F)cc1-n1c(=O)ccc2cc(S(=O)(=O)Nc3ccon3)ccc21 | 33.8 nM | 9.73 nM
COc1cc(C#CC2CCCC2)c(Cl)cc1-n1c(=O)ccc2cc(S(=O)(=O)Nc3ccon3)ccc21 | 18.6 nM | 10 nM
COc1cc(C#C[C@H]2C[C@@H]2C(F)(F)F)c(F)cc1-n1c(=O)ccc2cc(S(=O)(=O)Nc3ccon3)ccc21 | 210 nM | 
COc1cc(C#C[C@@H]2C[C@@H]2C(F)(F)F)c(F)cc1-n1c(=O)ccc2cc(S(=O)(=O)Nc3ccon3)ccc21 | 139 nM | 5.5 nM
COc1cc(C#CC2(C(F)(F)F)CC2)c(F)cc1-n1c(=O)ccc2cc(S(=O)(=O)Nc3ccon3)ccc21 |  | 8 nM
